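Values below derive from 48-hour exposures of cells grown in 96-well plates, with endpoints linearly interpolated between the two concentrations bracketing the appropriate inhibition level. The concentration for full growth arrest is given as TGI.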
Assays:
Assay in all cases: NCI tumour cell line growth inhibition, 48 h
786-0 renal = test system: 786-0 renal
A498 renal = test system: A498 renal
A549 NSCLC = test system: A549 NSCLC
ACHN renal = test system: ACHN renal
BT-549 breast = test system: BT-549 breast
CAKI-1 renal = test system: CAKI-1 renal
CCRF-CEM leukemia = test system: CCRF-CEM leukemia
COLO 205 colon = test system: COLO 205 colon
DU-145 prostate = test system: DU-145 prostate
EKVX NSCLC = test system: EKVX NSCLC
HCC-2998 colon = test system: HCC-2998 colon
HCT-116 colon = test system: HCT-116 colon
HCT-15 colon = test system: HCT-15 colon
HL-60(TB) leukemia = test system: HL-60(TB) leukemia
HOP-62 NSCLC = test system: HOP-62 NSCLC
HOP-92 NSCLC = test system: HOP-92 NSCLC
HS 578T breast = test system: HS 578T breast
HT29 colon = test system: HT29 colon
IGROV1 ovarian = test system: IGROV1 ovarian
K-562 leukemia = test system: K-562 leukemia
KM12 colon = test system: KM12 colon
LOX IMVI melanoma = test system: LOX IMVI melanoma
M14 melanoma = test system: M14 melanoma
MALME-3M melanoma = test system: MALME-3M melanoma
MCF7 breast = test system: MCF7 breast
MDA-MB-231 breast = test system: MDA-MB-231 breast
MDA-MB-435 = test system: MDA-MB-435
MDA-N = test system: MDA-N
MOLT-4 leukemia = test system: MOLT-4 leukemia
NCI-H226 lung = test system: NCI-H226 lung
NCI-H23 lung = test system: NCI-H23 lung
NCI-H460 lung = test system: NCI-H460 lung
NCI-H522 lung = test system: NCI-H522 lung
NCI/ADR-RES ovarian = test system: NCI/ADR-RES ovarian
OVCAR-3 ovarian = test system: OVCAR-3 ovarian
OVCAR-4 ovarian = test system: OVCAR-4 ovarian
OVCAR-5 ovarian = test system: OVCAR-5 ovarian
OVCAR-8 ovarian = test system: OVCAR-8 ovarian
PC-3 prostate = test system: PC-3 prostate
RPMI-8226 leukemia = test system: RPMI-8226 leukemia
RXF 393 renal = test system: RXF 393 renal
SF-268 CNS = test system: SF-268 CNS
SF-295 CNS = test system: SF-295 CNS
SF-539 CNS = test system: SF-539 CNS
SK-MEL-28 melanoma = test system: SK-MEL-28 melanoma
SK-MEL-5 melanoma = test system: SK-MEL-5 melanoma
SN12C renal = test system: SN12C renal
SNB-19 CNS = test system: SNB-19 CNS
SR leukemia = test system: SR leukemia
SW-620 colon = test system: SW-620 colon
T-47D breast = test system: T-47D breast
TK-10 renal = test system: TK-10 renal
U251 CNS = test system: U251 CNS
UACC-257 melanoma = test system: UACC-257 melanoma
UACC-62 melanoma = test system: UACC-62 melanoma
UO-31 renal = test system: UO-31 renal

Measured: TGI

COc1ccc2c(CC(=O)O)cc(=O)oc2c1
> 100 µM: all assays above

Reference: PubChem BioAssay (NCI)
